Several values for one entry are separate records, joined by “and”; a condition that tells them apart may be missing. Identical values can stand only once. Like-named read-outs stand apart in the source and are kept apart here.
Columns and labels:
[1] = tested on: PERK-eIF2α-CHOP (apoptotic) arm of the Unfolded Protein Response pathway; assay: UPR-CHOP primary assay (CHO-CHOP luciferase reporter); format: cell-based
Procedure: The purpose of this assay was to detect activators of the PERK-eIF2α-CHOP (apoptotic) arm of the Unfolded Protein Response pathway.
Cells were passaged twice a week. […] Once the cells had reached confluency, old medium was aspirated and the flasks were washed with 20 mL DPBS per T225 flask. Cells were left in DPBS for about 30 seconds. Subsequently, 6.5 mL 0.05% trypsin solution was added into the flask and the flask was rocked gently so that the solution covered the surface. The cells were allowed to detach by incubating at room temperature for about 4 minutes. The flask was washed with […] fresh growth media and the cell suspension was collected in a 50 mL sterile conical tube. The collected cells were centrifuged at 900 rpm for 5 minutes and re-suspended in 1 mL fresh growth media. An additional 19 mL of growth media was added and the tube was mixed gently. The cell suspension was filtered with a cell strainer and the cells were counted.
As above, cells were grown to confluency, washed, and detached with 5 mL trypsin solution for 4 minutes at room temperature. The flask was washed with 25 mL fresh growth media and the cell suspension was collected in a 50 mL sterile conical tube. The cells were centrifuged at 500 rpm for 10 minutes and re-suspended carefully in 1 mL fresh assay medium. An additional 19 mL of assay media was added the cells were mixed gently. The cell suspension was filtered with a cell strainer and the number of cells was counted. Cell density was adjusted to 1.0×10^5 cells/mL in medium.
On day 1, cell suspensions were prepared and 500 cells in 5 μL of assay media were plated in the wells of columns 1-48 of a 1536-well assay plate. The plates were centrifuged at 500 rpm for 1 minute and subsequently incubated at 37° C., 100% relative humidity, 5% CO2 for 16-18 hours.
[…] […] The plates were centrifuged at 1000 rpm for 1 minute and subsequently incubated at 37° C., 100% relative humidity, 5% CO2 for 6 hours.
Following the 6-hour incubation the plate was incubated for 10 minutes at room temperature and 3 μL of STEADY-GLO was added to each well. The plates were centrifuged at 2000 rpm for 2 minutes and subsequently incubated at room temperature for 10 minutes. Luminescence was measured with a luminometer.
The MLPCN library of approximately 330,000 compounds was tested in the UPR-CHOP primary screen utilizing a luciferase-based reporter expressed in a CHO cell line to identify activators of the CHOP apoptotic pathway. […]

[2] = tested on: IRE1/XBP1 (adaptive) UPR sub-pathway; assay: UPR XBP1 assay (CHO-XBP1-luciferase reporter cell line); format: cell-based
Procedure: A high-throughput screen of the NIH Molecular Libraries Small Molecule Repository (MLSMR) of >350,000 compounds was carried out using complementary cell-based reporter assays using stably transfected CHO-K1 cells that specifically identify activators of the PERK/eIF2α/CHOP (apoptotic), or the IRE1/XBP1 (adaptive) UPR sub-pathways.
The liquid samples were first confirmed at a single-point concentration of 10 μM in the […]. Of the liquid samples, 674 compounds were confirmed to have at least 32% activity at a 10 μM assay concentration. The confirmed compounds were further tested in dose response in the UPR-CHOP primary assay to obtain EC50 values. In addition, confirmed compounds were also dosed out in the CHO-XBP1-luciferase reporter cell line to identify compounds that were selective for the CHOP apoptotic over the adaptive XBP1 pathway.
The high throughput screening effort and subsequent validation produced two chemotypes, which were further explored by SAR analysis for potency, selectivity, the absence of reactive functionality, synthetic accessibility, physiochemical properties, and hit rate in unrelated PUBCHEM assays. SAR testing of re-constituted powders encompassed dose response testing of compounds in two assays: UPR-CHOP and UPR-XBP1 assays.

[3] = Aqueous solubility in 1x PBS, pH 7.4; format: physicochemical; settings: room temperature (23° C.)
Procedure: Solubility was measured in phosphate-buffered saline (PBS) at room temperature (23° C.). PBS by definition is 137 mM NaCl, 2.7 mM KCl, 10 mM sodium phosphate dibasic, 2 mM potassium phosphate monobasic and a pH of 7.4.

[4] = Hepatic microsome stability, human; format: in vitro ADME
Description: The microsomal stability assay is commonly used to rank compounds according to their metabolic stability. This assay addresses the pharmacologic question of how long the parent compound will remain circulating in plasma within the body.

[5] = Toxicity towards Fa2N-4 immortalized human hepatocytes; format: cell-based; settings: read-out: Toxicity Towards Fa2N-4 Immortalized Human Hepatocytes LC50
[6] = tested on: H460/T800; assay: Proliferation, H460/T800; format: cell-based; settings: Homo sapiens, NCI-H460, 24 hours, average of three experiments
Procedure: To determine whether ML291 could reduce the proliferation of malignant cells, a panel of OSCC (UMSCC23, A253, HN6, HN12, HN30, H460/T800) and ovarian cancer (RMG-1, TOV112D, A2780 and SKOV3) cell lines, were treated with increasing doses (0.15-20 μM) of ML291 for 24 hours (FIGS. 3A and 3B).

[7] = tested on: colorectal cell line DLD1(BAX−/−)(BAK−/−); assay: ML291 exposure of DLD1(BAX−/−)(BAK−/−) versus wild-type; format: cell-based, human; settings: versus wild-type controls
[8] = tested on: OSCC; assay: Preliminary combination studies with cisplatin and taxol; format: cell-based
Procedure: To confirm the ability of ML291 to activate UPR-luciferase reporters stably transfected into UMSCC23 and A253 cells and reduce tumor burden, additional xenograft studies are performed with additional animals to permit real-time measurement of UPR activation during drug treatment (bioluminescent imaging). The data presented herein indicate that ML291 can activate the UPR in xenograft tissue at 10 mg/kg. […] Thus, mice are injected IP in the morning with 10-100 mg/kg ML291. Injection in the morning, i.e., when the lights come on in the vivarium and the mice stomachs are most likely to be full, is a technique known to enhance absorption of nitrofurans into the bloodstream (Heinrichs (2001) Behavioural Brain Res. 125:81-88). […] Upon completion of this experiment, control and ML291 treated mice (3 each) undergo complete pathological necropsy to identify gross or histological signs of organ toxicity. Once the degree to which ML291 induces the UPR and reduces xenograft burden is analyzed, additional studies are carried out with combination therapies using standard of care OSCC drugs. […] It is posited that ML291-enforced UPR in the tumor milieu potentiates conventional therapies and might enhance the effects of cisplatin, ifosfamide or taxol.

Question: With O=C(Nc1ccc(S(=O)(=O)N2CCC(Cl)CC2)cc1)c1ccc([N+](=O)[O-])o1 [ML291, N-(4-((4-chloropiperidin-1-yl)sulfonyl)phenyl)-5-nitrofuran-2-carboxamide] as the molecule, how does the “selectivity (XBP1 over CHOP)” value [1] read?
Answer: > 108.1 fold

Question: What about the EC50 ([1]; CHO-K1, text, read-out: EC50 in the CHO-K1 cell reporter assays (CHOP)) of the same molecule?
Answer: 0.762 µM

Question: And the EC50 ([1]; Cricetulus griseus, Table 1, mean of replicates, AID602434, read-out: UPR CHOP Assay Potency EC50)?
Answer: 0.74 µM

Question: What about the EC50 ([1]; Cricetulus griseus, read-out: CHOP EC50) of the same molecule?
Answer: 0.74 µM

Question: And the “Selectivity (XBP1/CHOP) x-fold” value ([1]; Table 1)?
Answer: >108.1 x-fold

Question: And the EC50 ([1]; Table 9, average of four runs, F12 HAMs, 10% hi-FBS, read-out: EC50 UPR CHOP Assay)?
Answer: 0.78 µM

Question: What about the EC50 ([1]; read-out: EC50 in the CHO-K1 cell reporter assays (CHOP)) of the same molecule?
Answer: 0.76 µM

Question: And the EC50 ([2]; Table 1, mean of replicates, AID602416, read-out: UPR XBP1 Assay Potency EC50)?
Answer: > 80 µM

Question: What about the EC50 ([2]; Table 9, average of four runs, F12 HAMs, 10% hi-FBS, read-out: EC50 UPR XBP1 Assay) of the same molecule?
Answer: > 80 µM

Question: What about the EC50 ([2]; read-out: XBP1 EC50) of the same molecule?
Answer: > 80 µM

Question: And the “Aqueous Solubility in 1x PBS, pH 7.4” value [3]?
Answer: 3.9 μg/mL and 9.4 μM

Question: What about the “Hepatic Microsome Stability (% Remaining after 1 hour @ 37° C.)” value ([4]; Human) of the same molecule?
Answer: 0.49%

Question: What about the “metabolism in human liver homogenates” value ([4]; within 1 hour) of the same molecule?
Answer: almost completely metabolized

Question: And the CC50 [5]?
Answer: 11.4 µM

Question: And the IC50 [6]?
Answer: 18.9 ± 1.83 µM

Question: And the “ability of BAX/BAK-deleted cells to withstand exposure” value [7]?
Answer: significantly more able to withstand ML291 exposure than wild-type controls

Question: And the “effect of combination with cisplatin and taxol” value [8]?
Answer: reduced IC50 values

From patent US9732067B2, “Compounds and methods for activating the apoptotic arm of the unfolded protein response” (University of Kansas, priority 2012, dated 2017)
